We go through 10 compounds from ChEMBL document CHEMBL1201862, “PubChem BioAssay data set” (2004).

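All cell lines were grown in 96-well plates and treated with compound for 48 hours. Here, GI50 denotes the concentration required for 50% inhibition of growth.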 Active and inactive are the calls of the source. Rule as the data show it: active = GI50 up to about 1.1 µM and inactive = higher.

Holding throughout (assay): DTP human tumour cell line panel, 48 h
Experiment [1] concerns LOX IMVI.
For experiment [2], the system named is K562.
For experiment [3], the system named is SR.
Experiment [4] has as its system HOP-62.
Experiment [5] has as its system OVCAR-4.
The subject of experiment [6] is RPMI-8226.
Experiment [7] concerns NCI-H23.
The test system of experiment [8] is SNB-75.
The test system of experiment [9] is SN12C.
The test system of experiment [10] is Malme-3M.
Experiment [11] has as its system SW-620.
Experiment [12] relates to UACC-62.
In experiment [13] the test system is EKVX.
Experiment [14] deals with OVCAR-8.
For experiment [15], the system named is U-251.
For experiment [16], the system named is HCC 2998.
In experiment [17] the test system is COLO 205.
The test system of experiment [18] is OVCAR-3.
Experiment [19] has as its system 786-0.
Experiment [20] deals with SF-539.

Turning to `CCCCC(C)C(OC(=O)CC(CC(=O)O)C(=O)O)C(CC(C)CC(O)CCCCC(O)CC(O)C(C)N)OC(=O)CC(CC(=O)O)C(=O)O` (stereo not given), the GI50 in experiment [1], in [2], in [3], in [4], in experiment [5] and in [6] was > 100 µM (inactive) throughout. For the same compound, the GI50 in experiment [7] is > 100 µM (inactive); in experiment [8], > 78.3 µM (inactive); in [9] it was > 100 µM (inactive); in experiment [10] it was > 100 µM (inactive); in experiment [11], > 100 µM (inactive); in experiment [12] it was > 100 µM (inactive). Further, the GI50 in experiment [13], in experiment [14], in [15], in experiment [16], in experiment [17] and in [18] was > 100 µM (inactive) throughout. Moreover, the GI50 in experiment [19] and in [20] was > 100 µM (inactive) throughout.
As to `CCCCc1ccc(Nc2nc(Cl)c3c(ncn3COCCOC(C)=O)n2)cc1`, the GI50 was 17.5 µM (inactive) in [1]; 24.4 µM (inactive) in experiment [2]; 20.7 µM (inactive) in experiment [3]; 16.7 µM (inactive) in experiment [4]; 24.8 µM (inactive) in experiment [5]; 29 µM (inactive) in experiment [6]. Also, the GI50 in experiment [7] was 18.7 µM (inactive); in experiment [8], 2.2 µM (inactive); in experiment [9], 19.3 µM (inactive); in experiment [10], 19.4 µM (inactive); in experiment [11], 23.1 µM (inactive); in experiment [12], 16.6 µM (inactive). For the same compound, the GI50 in [13] is 19.8 µM (inactive); in experiment [14], 18.3 µM (inactive); in experiment [15], 22.9 µM (inactive); in [16], 19.9 µM (inactive); in experiment [17], 22.3 µM (inactive); in experiment [18], 21.2 µM (inactive). For the same compound, the figures for the GI50 in experiment [19] and in experiment [20] were 20.1 µM (inactive) and 19 µM (inactive), respectively.
For the compound `NNC(=O)/C(=C/c1ccc(Cl)cc1Cl)NC(=O)c1ccccc1`, the GI50 in experiment [1] was > 100 µM (inactive); in experiment [2], 71.4 µM (inactive); in [3], > 100 µM (inactive); in experiment [4] it was > 100 µM (inactive); in experiment [5] it was > 100 µM (inactive); in experiment [6], 86.7 µM (inactive). Further, the GI50 was > 100 µM (inactive) in experiment [7]; > 100 µM (inactive) in experiment [8]; > 100 µM (inactive) in experiment [9]; > 100 µM (inactive) in experiment [10]; > 100 µM (inactive) in experiment [11]; 41 µM (inactive) in experiment [12]. The GI50 in experiment [13] is < 0.01 µM (active); in experiment [14] it was > 100 µM (inactive); in experiment [15], > 100 µM (inactive); in experiment [16] it was > 100 µM (inactive); in experiment [17], > 100 µM (inactive); in experiment [18], > 100 µM (inactive). Besides, the GI50 in experiment [19] and in [20] was > 100 µM (inactive) throughout.
Regarding `COc1cc2c[n+](C)c3c4ccccc4ccc3c2cc1OC.COc1cc2cnc3c4ccccc4ccc3c2cc1OC`, the GI50 is 11.5 µM (inactive) in experiment [1]; 9.55 µM (inactive) in experiment [2]; 4.42 µM (inactive) in experiment [3]; 19.1 µM (inactive) in experiment [4]; 21.7 µM (inactive) in experiment [5]; 8.11 µM (inactive) in experiment [6]. The GI50 in experiment [7] was 12.2 µM (inactive); in experiment [8], 3.54 µM (inactive); in experiment [9] it was 2.84 µM (inactive); in experiment [10] it was 3.21 µM (inactive); in experiment [11], 4.34 µM (inactive); in [12], 6.68 µM (inactive). Moreover, the GI50 in [13] is 2.2 µM (inactive); in experiment [14], 12.1 µM (inactive); in experiment [15] it was 3.05 µM (inactive); in [16] it was 8.47 µM (inactive); in [17], 2.86 µM (inactive); in [18], 4.13 µM (inactive). Also, the GI50 was 12.3 µM (inactive) in experiment [19] and 10 µM (inactive) in [20].
Turning to `O=c1ncccn1[C@@H]1O[C@H](CO)[C@H](O)C1O` (stereo not given in full), the GI50 is > 61.8 µM (inactive) in [1]; 52.4 µM (inactive) in [2]; 43.6 µM (inactive) in [3]; 68.2 µM (inactive) in [4]; > 100 µM (inactive) in experiment [5]; > 74.5 µM (inactive) in experiment [6]. Moreover, the GI50 was > 100 µM (inactive) in [7]; 53.8 µM (inactive) in experiment [8]; > 77.1 µM (inactive) in experiment [9]; > 100 µM (inactive) in [10]; > 100 µM (inactive) in experiment [11]; > 99.5 µM (inactive) in experiment [12]. Moreover, the GI50 in experiment [13] was > 100 µM (inactive); in experiment [14], > 74.5 µM (inactive); in experiment [15] it was > 100 µM (inactive); in experiment [16], 40.9 µM (inactive); in experiment [17], > 88.7 µM (inactive); in experiment [18], > 100 µM (inactive). For the same compound, the results for the GI50 in [19] and in experiment [20] were > 78 µM (inactive) and > 75.3 µM (inactive), respectively.
Take `CCOC(=O)C(C(=S)SC)c1nn2c(=O)cc(C)nc2s1` (stereo not given): the GI50 in experiment [1] was 15.9 µM (inactive); in experiment [2], 18.2 µM (inactive); in [3], 15.7 µM (inactive); in experiment [4] it was 22.4 µM (inactive); in experiment [5] it was 23.7 µM (inactive); in experiment [6] it was 19.6 µM (inactive). Further, the GI50 in experiment [7] is 20.6 µM (inactive); in [8] it was 20.7 µM (inactive); in [9], 16.2 µM (inactive); in experiment [10], 16.4 µM (inactive); in [11] it was 20.3 µM (inactive); in [12], 20.4 µM (inactive). For the same compound, the GI50 is 18.8 µM (inactive) in experiment [13]; 19.3 µM (inactive) in experiment [14]; 16 µM (inactive) in [15]; 25.5 µM (inactive) in experiment [16]; 24.6 µM (inactive) in experiment [17]; 20.2 µM (inactive) in [18]. For the same compound, the GI50 in [19] was 20.3 µM (inactive); in experiment [20] it was 18.3 µM (inactive).
As for `CCc1ccccc1N1CCN(C(=O)c2cc(OC)c(OC)c(OC)c2)CC1`, the GI50 in experiment [1] was 0.0307 µM (active); in experiment [2], 0.0235 µM (active); in experiment [3], 0.0893 µM (active); in [4], 0.0217 µM (active); in experiment [5], 1.15 µM (inactive); in [6] it was 0.149 µM (active). The GI50 was 0.0557 µM (active) in experiment [7]; 0.0182 µM (active) in [8]; 0.184 µM (active) in experiment [9]; 0.0232 µM (active) in experiment [10]; 0.0208 µM (active) in experiment [11]; 0.0156 µM (active) in [12]. Also, the GI50 in experiment [13] was 1.39 µM (inactive); in [14], 0.0914 µM (active); in experiment [15], 0.0316 µM (active); in experiment [16], 0.0585 µM (active); in [17], 0.0219 µM (active); in [18] it was 0.0143 µM (active). The GI50 in experiment [19] was < 0.0149 µM (active); in [20], 0.0212 µM (active).
For the compound `CCOc1ccccc1N1C(=O)C(=O)C(c2nc3ccccc3o2)C(=O)C1=O`, the GI50 was > 100 µM (inactive) in experiment [1]; > 100 µM (inactive) in experiment [2]; > 100 µM (inactive) in experiment [3]; > 100 µM (inactive) in experiment [4]; 15.7 µM (inactive) in experiment [5]; > 100 µM (inactive) in [6]. The GI50 in [7] is > 100 µM (inactive); in experiment [8] it was 42.6 µM (inactive); in experiment [9] it was 93.8 µM (inactive); in experiment [10] it was > 100 µM (inactive); in experiment [11] it was > 100 µM (inactive); in experiment [12] it was > 100 µM (inactive). For the same compound, the GI50 was 71.9 µM (inactive) in [13]; 70.5 µM (inactive) in [14]; > 100 µM (inactive) in [15]; > 100 µM (inactive) in experiment [16]; > 100 µM (inactive) in experiment [17]; > 100 µM (inactive) in experiment [18]. For the same compound, the GI50 in experiment [19] is 21.2 µM (inactive); in experiment [20] it was > 100 µM (inactive).
Turning to `Cc1nc2ccc(S(=O)(=O)Nc3ccccc3Cl)cc2c(=O)n1NC(=O)CNc1ccccc1Cl`, the GI50 in experiment [1], in experiment [2], in [3], in experiment [4], in experiment [5] and in [6] was > 100 µM (inactive) throughout. Also, the GI50 in [7], in experiment [8], in experiment [9], in experiment [10], in experiment [11] and in [12] was > 100 µM (inactive) each time. Besides, the GI50 in [13], in experiment [14], in experiment [15], in experiment [16], in [17] and in experiment [18] was > 100 µM (inactive) each time. Further, the GI50 in [19] and in experiment [20] was > 100 µM (inactive) throughout.
`Nc1c2c(nc3ccccc13)-c1ccccc1CCC2`: the GI50 in experiment [1] is 12.7 µM (inactive); in [2], 6.65 µM (inactive); in experiment [3], 2.39 µM (inactive); in [4], 10.2 µM (inactive); in experiment [5], 14.4 µM (inactive); in [6] it was 8.67 µM (inactive). Also, the GI50 is 15.7 µM (inactive) in [7]; 10.2 µM (inactive) in experiment [8]; 16.3 µM (inactive) in [9]; 14.4 µM (inactive) in experiment [10]; 11.6 µM (inactive) in [11]; 10.7 µM (inactive) in experiment [12]. In addition, the GI50 in experiment [13] was 17.3 µM (inactive); in [14], 15 µM (inactive); in [15], 15 µM (inactive); in experiment [16] it was 3.08 µM (inactive); in [17] it was 14.1 µM (inactive); in experiment [18], 14.1 µM (inactive). Also, the values for the GI50 in [19] and in [20] were 14.1 µM (inactive) and 13.4 µM (inactive), respectively.

The GI50 is the concentration at which growth is held to half of that of the control.
